Common to all, as to assay: relative viability (nuclei count vs DMSO), 5 days (fraction); higher = more cells survive
Compound in the assay “Serdemetan + Crizotinib”: c1ccc2c(CCNc3ccc(Nc4ccncc4)cc3)c[nH]c2c1 [Serdemetan] + C[C@@H](Oc1cc(-c2cnn(C3CCNCC3)c2)cnc1N)c1c(Cl)ccc(F)c1Cl [Crizotinib] (partner 1 µM)
The procedure, abridged:
(§1)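 Nuclei were stained with Hoechst during a one-step fixation (final 0.05% Triton X-100, 1% formaldehyde, 1 ug/ml Hoechst) carried out 5 days after dosing, then counted on 4× images. The cells, lung cancer lines in 1536-well plates, had been dosed by pin tool the day after seeding with one drug alone or a fixed anchor-drug dose plus five library-drug doses (not always all listed) in √10 steps. Relative viability is the nuclei count in treated wells divided by that in vehicle wells, and each value is the median of duplicate plates.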

Compound in the assay “Serdemetan + Alpelisib”: c1ccc2c(CCNc3ccc(Nc4ccncc4)cc3)c[nH]c2c1 [Serdemetan] + Cc1nc(NC(=O)N2CCC[C@H]2C(N)=O)sc1-c1ccnc(C(C)(C)C(F)(F)F)c1 [Alpelisib] (partner 2 µM)
The procedure, abridged: as §1

Compound in the assay “Selisistat + Decitabine”: C1CC(C2=C(C1)C3=C(N2)C=CC(=C3)Cl)C(=O)N [Selisistat] + Nc1ncn([C@H]2C[C@H](O)[C@@H](CO)O2)c(=O)n1 [Decitabine] (partner 2 µM)
The procedure, abridged: as §1

Compound in the assay “Selisistat + Trametinib”: C1CC(C2=C(C1)C3=C(N2)C=CC(=C3)Cl)C(=O)N [Selisistat] + CC(=O)Nc1cccc(-n2c(=O)n(C3CC3)c(=O)c3c(Nc4ccc(I)cc4F)n(C)c(=O)c(C)c32)c1 [Trametinib] (partner 0.02 µM)
Put shortly: as §1

Results on 1 cell line are retold here after the supplement of paper PMC10307832.

For UMC-11, the relative viability stood at 0.661 in the assay with Serdemetan + Crizotinib (first compound 0.04 µM); 0.591 in the assay with Serdemetan + Crizotinib (first compound 0.1265 µM); 0.577 with Serdemetan + Crizotinib (first compound 0.4 µM); 0.482 with Serdemetan + Crizotinib (first compound 1.265 µM); 0.358 with Serdemetan + Crizotinib (first compound 4 µM); 0.914 in the assay with Serdemetan + Alpelisib (first compound 0.04 µM). The relative viability with Serdemetan + Alpelisib (first compound 0.1265 µM) was determined as 0.988; with Serdemetan + Alpelisib (first compound 0.4 µM) it was 1.01; in the assay with Serdemetan + Alpelisib (first compound 1.265 µM), 0.751; in the assay with Serdemetan + Alpelisib (first compound 4 µM), 0.769; with Selisistat + Decitabine (first compound 0.4 µM), 0.604; with Selisistat + Decitabine (first compound 1.265 µM), 0.688. The relative viability with Selisistat + Decitabine (first compound 4 µM) is 0.646; in the assay with Selisistat + Decitabine (first compound 12.65 µM), 0.676; with Selisistat + Decitabine (first compound 40 µM), 0.637; with Selisistat + Trametinib (first compound 0.4 µM), 0.575; in the assay with Selisistat + Trametinib (first compound 1.265 µM) it was 0.653; in the assay with Selisistat + Trametinib (first compound 4 µM), 0.596. The relative viability with Selisistat + Trametinib (first compound 12.65 µM) stood at 0.742; in the assay with Selisistat + Trametinib (first compound 40 µM), 0.717.
